The values that follow are results of earlier work, collected in patent US20220175791A1, “Methods for Predicting Neisseria Spp. Susceptibility to Cefixime” (priority 2019, published 2022).

Molecules are shown by their SMILES.

Turning to `C=CC1=C(C(=O)O)N2C(=O)[C@@H](NC(=O)/C(=N\OCC(=O)O)c3csc(N)n3)[C@H]2SC1` [cefixime, Cefixime], the tolerability entry (even in penicillin allergic patients) was “very well tolerated”. For the same compound, where the note is “human, in vivo, po”, the bioavailability result was “high”.
